Laboratory results taken from patent publication US10117430B2, “Malononitrile compounds for controlling animal pests” (BASF SE, priority 2012, dated 2018).

Legend:
Format in all cases: in vivo
[1] = test system: Yellow Fever Mosquito (Aedes aegypti); experiment: whole plant or invertebrate; settings: 48 h, in comparison with untreated controls, larval mortality after 2 days
Procedure: B.12 Yellow Fever Mosquito (Aedes aegypti)
For evaluating control of yellow fever mosquito (Aedes aegypti) the test unit consisted of 96-well-microtiter plates containing 200 μl of tap water per well and 5-15 freshly hatched A. aegypti larvae. The compounds or mixtures were formulated using a solution containing 75% water and 25% DMSO. Different concentrations of formulated compounds or mixtures were sprayed onto the insect diet at 2.5 μl, using a custom built micro atomizer, at two replications. After application, microtiter plates were incubated at 28±1° C., 80±5% relative humidity for 2 days. Larval mortality was then visually assessed.

[2] = test system: Cowpea Aphid (Aphis craccivora); experiment: B.1 Cowpea aphid spray test on potted cowpea plants; settings: in comparison with untreated controls, population reduction assessed after 24, 72 and 120 hours
Procedure: B.1 Cowpea Aphid (Aphis craccivora)
The active compounds were formulated in 50:50 (v/v) acetone:water. The test solution was prepared at the day of use. Potted cowpea plants colonized with approximately 100-150 aphids of various stages were sprayed after the pest population has been recorded. Population reduction was assessed after 24, 72, and 120 hours.

[3] = test system: Green Peach Aphid (Myzus persicae); experiment: B.3 Green peach aphid systemic test, artificial diet under membrane; settings: 72 h, concentration of the test solution 2500 mg/L, 3 days
Excerpt: B.3 Green Peach Aphid (Myzus persicae)
For evaluating control of green peach aphid (Myzus persicae) through systemic means the test unit consisted of 96-well-microtiter plates containing liquid artificial diet under an artificial membrane. The compounds were formulated using a solution containing 75% v/v water and 25% v/v DMSO. Different concentrations of formulated compounds were pipetted into the aphid diet, using a custom built pipetter, at two replications. After application, 5-8 adult aphids were placed on the artificial membrane inside the microtiter plate wells. The aphids were then allowed to suck on the treated aphid diet and incubated at about 23±1° C. and about 50±5% relative humidity for 3 days. Aphid mortality and fecundity was then visually assessed.

[4] = test system: Vetch Aphid (Megoura viciae); experiment: B.7 Vetch aphid test on broad bean leaf disks; settings: foliar, 120 h, in comparison with untreated controls, 5 days
Procedure: B.7 Vetch Aphid (Megoura viciae)
For evaluating control of vetch aphid (Megoura viciae) through contact or systemic means the test unit consisted of 24-well-microtiter plates containing broad bean leaf disks. The compounds were formulated using a solution containing 75% v/v water and 25% v/v DMSO. Different concentrations of formulated compounds were sprayed onto the leaf disks at 2.5 μl, using a custom built micro atomizer, at two replications. After application, the leaf disks were air-dried and 5-8 adult aphids placed on the leaf disks inside the microtiter plate wells. The aphids were then allowed to suck on the treated leaf disks and incubated at about 23±1° C. and about 50±5% relative humidity for 5 days. Aphid mortality and fecundity was then visually assessed.

[5] = test system: Rice brown plant hopper (Nilaparvata lugens); experiment: B.11 Rice brown plant hopper test on sprayed rice seedlings; settings: in comparison with untreated controls, after 72 hours
Procedure: B.11 Rice brown plant hopper (Nilaparvata lugens)
Rice seedlings were cleaned and washed 24 hours before spraying. The active compounds were formulated in 50:50 acetone:water (vol:vol) and 0.1% vol/vol surfactant (EL 620) was added. Potted rice seedlings were sprayed with 5 ml test solution, air dried, placed in cages and inoculated with 10 adults. Treated rice plants were kept at about 28-29° C. and relative humidity of about 50-60%. Percent mortality was recorded after 72 hours.

[6] = test system: Green Soldier Stink Bug (Nezara viridula); experiment: B.15 Green soldier stink bug test on sprayed soybean pods; settings: 120 h, in comparison with untreated controls, after 5 days
Procedure: B.15 Green Soldier Stink Bug (Nezara viridula)
The active compound is dissolved at the desired concentration in a mixture of 1:1 (vol:vol) distilled water:aceteone. Surfactant (Kinetic HV) is added at a rate of 0.01% (vol/vol). The test solution is prepared at the day of use. Soybean pods were placed in microwavable plastic cups lined with moist filter paper and inoculated with ten 3rd instar N. viridula. Using a hand atomizer, an approximately 2 ml solution is sprayed into each cup. Treated cups were kept at about 28-29° C. and relative humidity of about 50-60%. Percent mortality was recorded after 5 days.

[7] = test system: Orchid Thrips (Dichromothrips corbetti); experiment: B.4 Orchid thrips floral-immersion test; settings: 96 h, in comparison with untreated controls, after 4 days
Procedure: B.4 Orchid Thrips (Dichromothrips Corbetti)
Dichromothrips corbetti adults used for bioassay are obtained from a colony maintained continuously under laboratory conditions. For testing purposes, the test compound is diluted to a concentration of 300 ppm (wt compound: vol diluent) in a 1:1 mixture of acetone:water (vol:vol), plus 0.01% vol/vol Kinetic® surfactant. Thrips potency of each compound is evaluated by using a floral-immersion technique. Plastic petri dishes are used as test arenas. All petals of individual, intact orchid flowers are dipped into treatment solution and allowed to dry. Treated flowers are placed into individual petri dishes along with 10-15 adult thrips. The petri dishes are then covered with lids. All test arenas are held under continuous light and a temperature of about 28° C. for duration of the assay. After 4 days, the numbers of live thrips are counted on each flower, and along inner walls of each petri dish. The level of thrips mortality is extrapolated from pre-treatment thrips numbers.

[8] = test system: Boll Weevil (Anthonomus grandis); experiment: B.9 Boll weevil microtiter diet test, egg and larval mortality; settings: 120 h, in comparison with untreated controls, egg and larval mortality after 5 days
Procedure: B.9 Boll Weevil (Anthonomus grandis)
For evaluating control of boll weevil (Anthonomus grandis) the test unit consisted of 24-well-microtiter plates containing an insect diet and 20-30 A. grandis eggs. The compounds were formulated using a solution containing 75% v/v water and 25% v/v DMSO. Different concentrations of formulated compounds were sprayed onto the insect diet at 20 μl, using a custom built micro atomizer, at two replications. After application, microtiter plates were incubated at about 23±1° C. and about 50±5% relative humidity for 5 days. Egg and larval mortality was then visually assessed.

[9] = test system: Silverleaf Whitefly (Bemisia argentifolii); experiment: B.5 Silverleaf whitefly test on sprayed cotton plants; settings: 72 h, in comparison with untreated controls, 3 days after treatment
Procedure: B.5 Silverleaf Whitefly (Bemisia argentifolii)
The active compounds were formulated in cyclohexanone as a 10,000 ppm solution supplied in 1.3 ml ABgene® tubes. These tubes were inserted into an automated electrostatic sprayer equipped with an atomizing nozzle and they served as stock solutions for which lower dilutions were made in 50% acetone:50% water (v/v). A nonionic surfactant (Kinetic®) was included in the solution at a volume of 0.01% (v/v). Cotton plants at the cotyledon stage (one plant per pot) were sprayed by an automated electrostatic plant sprayer equipped with an atomizing spray nozzle. The plants were dried in the sprayer fume hood and then removed from the sprayer. Each pot was placed into a plastic cup and 10 to 12 whitefly adults (approximately 3-5 days old) were introduced. The insects were collected using an aspirator and 0.6 cm, nontoxic Tygon® tubing (R-3603) connected to a barrier pipette tip. The tip, containing the collected insects, was then gently inserted into the soil containing the treated plant, allowing insects to crawl out of the tip to reach the foliage for feeding. Cups were covered with a reusable screened lid (150-micron mesh polyester screen PeCap from Tetko, Inc.). Test plants were maintained in a growth room at 25° C. and 20-40% relative humidity for 3 days, avoiding direct exposure to fluorescent light (24 hour photoperiod) to prevent trapping of heat inside the cup. Mortality was assessed 3 days after treatment, compared to untreated control plants.

[10] = test system: Red Spider Mite (Tetranychus kanzawai); experiment: B.10 Red spider mite test on sprayed cowpea beans; settings: in comparison with untreated controls, 72 hours after treatment
Procedure: B.10 Red Spider Mite (Tetranychus kanzawai)
The active compound is dissolved at the desired concentration in a mixture of 1:1 (vol:vol) distilled water:acetone. Add surfactant (Alkamuls® EL 620) at the rate of 0.1% (vol/vol). The test solution is prepared at the day of use. Potted cowpea beans of 7-10 days of age were cleaned with tap water and sprayed with 5 ml of the test solution using air driven hand atomizer. The treated plants were allowed to air dry and afterwards inculated with 20 or more mites by clipping a cassava leaf section with known mite population. Treated plants were placed inside a holding room at about 25-27° C. and about 50-60% relative humidity. Percent mortality was assessed 72 hours after treatment.

[11] = test system: Mediterranean Fruitfly (Ceratitis capitata); experiment: B.2 Mediterranean fruitfly microtiter diet test, egg and larval mortality; settings: 120 h, in comparison with untreated controls, egg and larval mortality after 5 days
Procedure: B.2 Mediterranean Fruitfly (Ceratitis capitata)
For evaluating control of Mediterranean fruitfly (Ceratitis capitata) the test unit consisted of microtiter plates containing an insect diet and 50-80 C. capitata eggs. The compounds were formulated using a solution containing 75% v/v water and 25% v/v DMSO. Different concentrations of formulated compounds were sprayed onto the insect diet at 5 μl, using a custom built micro atomizer, at two replications. After application, microtiter plates were incubated at about 28±1° C. and about 80±5% relative humidity for 5 days. Egg and larval mortality was then visually assessed.

[12] = test system: Tobacco Budworm (Heliothis virescens); experiment: B.8 Tobacco budworm test on sprayed cotton plants; settings: 96 h, in comparison with untreated controls, 4 days after treatment
Procedure: B.8 Tobacco Budworm (Heliothis virescens) I
The active compounds were formulated in cyclohexanone as a 10,000 ppm solution supplied in tubes. The tubes were inserted into an automated electrostatic sprayer equipped with an atomizing nozzle and they served as stock solutions for which lower dilutions were made in 50% acetone:50% water (v/v). A nonionic surfactant (Kinetic®) was included in the solution at a volume of 0.01% (v/v). Cotton plants were grown 2 plants to a pot and selected for treatment at the cotyledon stage. Test solutions were sprayed onto the foliage by an automated electrostatic plant sprayer equipped with an atomizing spray nozzle. The plants were dried in the sprayer fume hood and then removed from the sprayer. Each pot was placed into perforated plastic bags with a zip closure. About 10 to 11 budworm larvae were placed into the bag and the bags zipped closed. Test plants were maintained in a growth room at about 25° C. and about 20-40% relative humidity for 4 days, avoiding direct exposure to fluorescent light (24 hour photoperiod) to prevent trapping of heat inside the bags. Mortality and reduced feeding were assessed 4 days after treatment, compared to untreated control plants.

[13] = test system: Southern Armyworm (Spodoptera eridania); experiment: B.6 Southern armyworm test on sprayed lima bean plants; settings: 96 h, 500 ppm, in comparison with untreated controls, 4 days after treatment
Procedure: B.6 Southern Armyworm (Spodoptera eridania)
The active compounds were formulated in cyclohexanone as a 10,000 ppm solution supplied in 1.3 ml ABgene® tubes. These tubes were inserted into an automated electrostatic sprayer equipped with an atomizing nozzle and they served as stock solutions for which lower dilutions were made in 50% acetone:50% water (v/v). A nonionic surfactant (Kinetic®) was included in the solution at a volume of 0.01% (v/v). Lima bean plants (variety Sieva) were grown 2 plants to a pot and selected for treatment at the 1st true leaf stage. Test solutions were sprayed onto the foliage by an automated electrostatic plant sprayer equipped with an atomizing spray nozzle. The plants were dried in the sprayer fume hood and then removed from the sprayer. Each pot was placed into perforated plastic bags with a zip closure. Ten to 11 armyworm larvae were placed into the bag and the bags zipped closed. Test plants were maintained in a growth room at 25° C. and 20-40% relative humidity for 4 days, avoiding direct exposure to fluorescent light (24 hour photoperiod) to prevent trapping of heat inside the bags. Mortality and reduced feeding were assessed 4 days after treatment, compared to untreated control plants.

N#CC(C#N)(Cc1cnc(C(F)(F)F)nc1)c1ccccc1 [II-20]
≥ 75%: mortality at 2500 ppm [1] | mortality at 500 ppm [2] | mortality at 2500 µg/mL [3] | mortality at 2500 ppm [4] | mortality at 300 ppm [5] | mortality at 500 ppm [6] | mortality at 500 ppm [7] | mortality at 2500 ppm [8] | mortality at 500 ppm [9] | mortality at 500 ppm [10] | mortality at 2500 ppm [11]

N#CC(C#N)(Cc1cccnc1)c1ccccc1 [II-31]
≥ 75%: mortality at 2500 ppm [12] | mortality at 2500 ppm [8] | mortality at 500 ppm [9]

N#CC(C#N)(Cc1ccc(F)nc1F)c1ccc(F)cc1 [II-51]
≥ 75%: mortality at 2500 ppm [1] | mortality at 500 ppm [7] | mortality at 500 ppm [10]

N#CC(C#N)(Cc1ccc(C(F)(F)F)nc1)c1cc(F)c(F)c(F)c1 [II-43]
≥ 75%: mortality at 2500 ppm [1] | mortality at 500 ppm [2] | mortality at 2500 µg/mL [3] | mortality at 2500 ppm [4] | mortality at 300 ppm [5] | mortality at 500 ppm [7] | mortality at 2500 ppm [8] | mortality at 500 ppm [10] | mortality at 2500 ppm [11]

N#CC(C#N)(Cc1cnc(C(F)(F)F)cn1)c1cccc(F)c1 [II-28]
≥ 75%: mortality at 2500 ppm [1] | mortality at 500 ppm [2] | mortality at 2500 ppm [4] | mortality at 500 ppm [7] | mortality at 2500 ppm [8] | mortality at 500 ppm [9] | mortality at 500 ppm [10]

N#CC(C#N)(Cc1ccc(F)nc1F)c1ccccc1 [II-50]
≥ 75%: mortality at 2500 ppm [1] | mortality at 2500 ppm [12] | mortality at 500 ppm [7]

N#CC(C#N)(Cc1ncc(C(F)(F)F)cn1)c1ccccc1 [II-16]
≥ 75%: mortality at 2500 ppm [1] | mortality at 500 ppm [2] | mortality at 2500 µg/mL [3] | mortality at 500 ppm [13] | mortality at 2500 ppm [4] | mortality at 300 ppm [5] | mortality at 500 ppm [7] | mortality at 2500 ppm [8] | mortality at 500 ppm [9] | mortality at 500 ppm [10]

CC(c1ccc(F)cn1)C(C#N)(C#N)c1ccc(F)cc1 (stereo not shown) [II-9]
≥ 75%: mortality at 2500 ppm [1] | mortality at 2500 µg/mL [3] | mortality at 300 ppm [5] | mortality at 2500 ppm [8] | mortality at 500 ppm [9] | mortality at 500 ppm [10]
